Columns and labels:
[1] = test system: oligodendrocyte progenitor cells (OPCs); test: CSPG gradient crossing (spot) assay, OPC migration; format: cell-based, mouse
Procedure: CSPG gradients were prepared as described previously (Tom, V. J., et al. Studies on the Development and Behavior of the Dystrophic Growth Cone, the Hallmark of Regeneration Failure, in an In vitro Model of the Glial Scar and after Spinal Cord Injury.). 24-well glass coverslip were coated with poly-L-lysine and nitrocellulose, and a mixture of 700 μg/mL aggrecan (A1960 Sigma) and 10 μg/mL laminin (11243217001 Sigma) spotted on the coated coverslip. After drying, coated coverslips were then incubated with laminin at 37° C. for 3h. Purified OPCs were plated at a density of 10,000/coverslip and cultured in DMEM/F12 medium containing with N2, PDGF (20 ng/ml), FGF (20 ng/ml), NT-3 (5 ng/ml), CNTF (O1 ng/ml), Glutamine (200 mM). Coverslips were stained with CS-56 (C8035, Sigma, 1:500) and O4 antibodies (Hybridoma Core Cleveland Clinic, 1:10). O4-positive cells crossing the aggrecan border were counted for each spot. For CSPG gradient quantification, 1×10^6 OPCs were plated per well on PLL, 1 μg/mL laminin, and 2 μg/mL aggrecan coated 6-well plates. OPCs treated with vehicle, 2.5 μM ISP, or 2.5 μM SISP for 2 days at 37° C. CM was harvested and incubated with freshly made spots. Spots were incubated with CM for 2 days at 37° C. then stained with CS-56 and laminin (L9393, Sigma, 1:1000) antibodies and consistently imaged. Using ImageJ software (NIH), pixel intensities of the CS-56 or laminin spot rims were quantified using the same ROI. For cultured spinal cord explant, the spinal cords of cervical and thoracic of P1 mouse pups were chopped into 1-2 mm tissue pieces and transferred to the coverslip. Explants were cultured in DMEM/F12 medium with 15% FBS (Hyclone), O1 ng/ml PDGF (Sigma) and N2 supplement (Invitrogen). For ISP treatment, 2.5 uM ISP was added to the media at the time of plating. 25 μM GM6001 (2983, Tocris), 100 nM MMP-2 inhibitor (444244, Calbiochem), and/or 2.5 μM ISP or SISP was used.

[2] = test system: organotypic cerebellar slice cultures; test: LPC-induced demyelination in mouse cerebellar slice cultures; format: cell-based
Excerpt: We carried out the cerebellar slice culture method as described previously (Zhang, H., et al. Central nervous system remyelination in culture—A tool for multiple sclerosis research. Experimental Neurology 230, 138-148 (2011)). Briefly, 300 μm-thick cerebellar slices were cut from P10-12 mouse cerebellum using a Leica vibrating microtome (Leica, VT1000S) and cultured in medium containing 50% basal medium eagle medium, 25% Heat-inactivated horse serum, 25% Hank's solution, 2.5% glucose, 1% glutamine and penicillin-streptomycin. After 4 days in vitro (DIV), 0.5 mg/ml LPC were added for 17-18h to induce demyelination. Slices were then incubated with 2.5 μM ISP for 8 days. For GM6001 experiments, 25 μM GM6001 (Tocris) and/or 2.5 μM ISP or SISP was incubated for 9 days. Remyelination was examined by semi-quantitative Western blot of MBP and immunofluorescence stain of MBP and NeuF200.
Slices were fixed with 4% PFA, delipidated, and washed three times in PBS, blocked in PBS containing 0.1% Triton X-100 and 5% normal goat serum and incubated with anti-MBP (SMI-99P, Covance, 1:300), and anti-NeuF200 (N4142, Sigma, 1:250) antibodies overnight at 4° C. The slices were then washed in PBS and incubated in Alexa Fluor-conjugated secondary antibodies (1:500, invitrogen) for 2h. Slices were mounted in Vectashield mounting medium with DAPI (Vector Laboratories) and analyzed using Leica DFC500 fluorescence microscope.

[3] = test system: oligodendrocyte progenitor cells (OPCs); test: OPC maturation and process outgrowth on CSPGs (MBP footprint); format: cell-based, mouse
Procedure: OPCs were prepared from newborn C57BL/6 mice as described previously (Luo, F., et al. The Activators of Cyclin-Dependent Kinase 5 p35 and p39 Are Essential for Oligodendrocyte Maturation, Process Formation, and Myelination. J. Neurosci. 36, 3024-3037 (2016).). Cell culture plates were pre-coated with IgM (10 jpg/ml, Millipore) in 50 mM Tris-HCl and followed primary mouse antibody A2B5. Dissociated cells were incubated in the pre-coated culture dishes for 30 min at 37° C. and then non-adherent cells were gently removed. A2B5+ OPCs were released by 0.05% trypsin in DMEM at a purify of ˜96%. Purified OPC cells were expanded in DMEM/F12 medium supplemented with N2, 20 ng/ml PDGF, 20 ng/mlFGF, 5 ng/mlNT-3, 10 ng/ml CNTF, Glutamine (200 mM).
For MMP-2/04 staining, OPCs were plated onto 24-well coverslips that were precoated with PLL, 1 μg/mL laminin, and 2 μg/mL aggrecan and incubated with vehicle or 2.5 μM ISP for 2 days at 37° C. Cultured OPC or OL cells were fixed in 4% PFA and followed blocking in PBST solution (10% normal goat serum and 0.2% Triton-X100 in PBS). Diluted primary antibodies were incubated with samples overnight at 4° C. and followed by appropriate secondary antibody goat anti-mouse or anti-rabbit IgM or IgG conjugated with Alexa Fluor 488 or 594 (1:500, Invitrogen). […]

[4] = test system: oligodendrocyte progenitor cells (OPCs); test: Ki-67 proliferation and TUNEL apoptosis of OPCs on aggrecan/laminin; format: cell-based, mouse
Procedure: To assess proliferation, OPCs were plated on 24-well coverslips that were precoated with PLL, 1 μg/mL laminin, and 2 μg/mL aggrecan. OPCs were treated with vehicle, 2.5 μM ISP or SISP immediately upon plating for 2 days at 37° C. Coverslips were fixed and stained using the same method described in the immunocytochemistry section with Ki-67 (550609, BD Pharmingen, 1:500) and O4 (1:10). Coverslips were imaged and counted. To assess apoptosis, OPCs were cultured in the same fashion and incubated with vehicle or 1 μg/mL LPC for 2 hours at 2 days following vehicle, 2.5 μM ISP or SISP incubation. Coverslips were then fixed with PFA and methanol then stained using APO-BrdU TUNEL assay kit (A23210, ThermoFisher) and guidelines with an O/N incubation of the primary antibody at RT. Coverslips were additionally costained with DAPI (D9542, Sigma, 1:10,000) then imaged and counted.

In the case of `CCCCCCCC/C=C\CCCCCCCC(=O)NO` [OA-Hy, reference compound], the “OPC entry into the CSPG-rich area” value ([1]; 25 μM GM6001 or 100 nM OA-Hy, even in the presence of ISP) is reported as “effectively halted OPC entry”, the “colocalization of MBP and neurofilament+ axons” value ([2]; 25 μM GM6001 or 100 nM OA-Hy in conjunction with 2.5 μM ISP, 9 days) is reported as “decreased” and the MBP footprint ([3]; 100 nM OA-Hy, OPCs on aggrecan/laminin, vs ISP treatment alone) is reported as “decreased MBP footprint significantly”. For the same compound, the “apoptosis (TUNEL) following LPC treatment” value ([4]; 100 nM OA-Hy with ISP, LPC 1 μg/mL 2 hours, vs LPC-ISP) was “increased apoptosis” and the “TUNEL+ cells/total cells” value ([4]; 100 nM OA-Hy, 2 days in vitro, no LPC) was “did not significantly increase”.

“GRKKRRQRRRCDMAEHMERLKANDSLKLSQEYESI [ISP]” was tested, and the “O4+ OPCs crossing the CSPG barrier” value ([1]; purified OPCs, 2.5 μM ISP vs control) was “significantly induced greater O4+ OPC migration”, the MBP-neurofilament colocalization ([2]; 2.5 μM ISP for 9 days after LPC, vs control) was “significantly increased” and the “remyelination (MBP and NF200 colocalization)” value ([2]; 2.5 μM ISP, 8 div after LPC, vs vehicle) was “increased remyelination”. The “aggrecan (Cat301) expression vs vehicle” value ([2]; 4 div) was “similar”, the “aggrecan (Cat301) presence” value ([2]; 8 div) was “decrease in aggrecan presence” and the “CSPG expression vs vehicle” value ([2]; 14 div) was “greater CSPG decrease”. The “remyelination (MBP and NF200 colocalization, western blot)” value ([2]; ISP, 14 div after LPC) was “abundant remyelinated axons”, the “process outgrowth and maturation of OPCs grown on CSPGs (MBP+ footprints)” value ([3]; ISP vs vehicle on CSPGs) was “largely rescued” and the “OPC proliferation (Ki67)” value ([4]; 2.5 μM peptide, 2 div, laminin 1 and aggrecan 2 μg/mL, vs control) was “no significant differences”. For the same compound, the “OPC death (TUNEL) after LPC challenge” value ([4]; LPC 1 μg/mL, 2 hours, 2.5 μM ISP) was “decreased OPC death” and the “percentage of apoptotic cells (TUNEL)” value ([4]; OPCs on low laminin and aggrecan, 2.5 μM ISP) was “decreased the percentage of apoptotic cells”.
